Experimental data published in PubChem BioAssay AID1996.
In brackets after ≈: the same amount, converted by molar mass.

Details: buffer; pH 7.4; 200.0 µM

Going from `CC(=O)NC1(C(F)(F)F)C(=O)Nc2c1c(=O)[nH]c(=O)n2CC(C)C` (centres undefined) to `CCCCN(C(=O)CSc1nc(CCC)cc(=O)[nH]1)c1c(N)n(Cc2ccccc2)c(=O)[nH]c1=O`, the solubility kinetic rises from under 0.2 µg/mL to over 74.8 µg/mL.

Going from `CCOC(=O)Cc1csc(NC(=O)CN2CCOCC2)n1` to `Cc1cccc(NC(=O)CN2CCCCCC2)c1`, the solubility kinetic falls from 40.1 µg/mL (≈ 128 µM) to 25.8 µg/mL (≈ 105 µM) (1.6-fold).

Going from `Cc1ccc(S(=O)(=O)Nc2cccc3ncccc23)cc1` to `Cc1noc(NS(=O)(=O)c2ccc(N)cc2)c1C`, the solubility kinetic rises from 31.1 µg/mL (≈ 104 µM) to over 40.1 µg/mL.

First: Cc1ccc(C(=O)Nc2nccs2)s1
Second: CC(=O)Cc1nsc(Nc2cccc(C)c2)n1
The solubility kinetic of the first is 3.2-fold lower: 9.6 µg/mL (≈ 42.8 µM) for the first, 30.5 µg/mL (≈ 123 µM) for the second.

First: O=C(NC(=O)c1ccccc1)Nc1cccc(S(=O)(=O)N2CCCCC2)c1
Second: O=C(O)c1cccc(S(=O)(=O)NCC2COc3ccccc3O2)c1 (centres undefined)
The solubility kinetic of the first is lower: 2.2 µg/mL (≈ 5.68 µM) for the first, over 52.4 µg/mL for the second.

Going from `CCOc1ccccc1N=Cc1c(O)n(C)c(=O)n(C)c1=O` to `Cn1c(=O)c2c(nc(N3CCOCC3)n2CCc2ccccc2)n(C)c1=O`, the solubility kinetic rises from 1.1 µg/mL (≈ 3.63 µM) to 53.9 µg/mL (≈ 146 µM) (49-fold).

First: Cc1[nH]c2c(ccc3cccnc32)c1C
Second: COc1ccccc1C(=O)Nc1cccc2cccnc12
The solubility kinetic of the first is higher: 19.4 µg/mL (≈ 98.9 µM) for the first, under 0.3 µg/mL for the second.

`Cc1ccc(C(=O)CSc2nc(O)cc(=O)[nH]2)cc1C` and `Cc1cc(C(=O)O)ccc1-n1c(C)cc(/C=C2\SC(=O)NC2=O)c1C` cannot be ordered by solubility kinetic: over 43.6 µg/mL for the first, over 53.5 µg/mL for the second.

First: Cc1cc(=O)[nH]c2ccc(S(=O)(=O)NCc3ccccc3)cc12
Second: CCC(=O)N(Cc1cc(=O)[nH]c2ccccc12)c1ccccc1C
The solubility kinetic of the first is 15-fold lower: 2.5 µg/mL (≈ 7.61 µM) for the first, 36.3 µg/mL (≈ 113 µM) for the second.

`O=C(O)CC1(CC(=O)Nc2ccc(F)c(Cl)c2)CCCCC1` and `O=C(COc1ccc(Cl)cc1[N+](=O)[O-])N1CCCCC1` cannot be ordered by solubility kinetic: over 49.2 µg/mL for the first, over 44.8 µg/mL for the second.

`Cc1c(C(=O)OCC(=O)N2CCCCC2C)oc2ccccc12` (centres undefined) and `O=C(O)C1CCN(C(=O)CSc2nnc(-c3ccccc3)o2)CC1` cannot be ordered by solubility kinetic: over 47.3 µg/mL for the first, over 52.1 µg/mL for the second.

First: CN(CC(=O)NCc1ccc(F)cc1)Cc1cccc(Cl)c1
Second: CC(C)C(OC(=O)c1cccs1)C(=O)NCc1ccc(F)cc1 (centres undefined)
The solubility kinetic of the first is lower: 38.7 µg/mL (≈ 121 µM) for the first, over 50.3 µg/mL for the second.

Going from `CC(=O)c1cccc(NC(=O)COC(=O)c2ccccn2)c1` to `O=C(COC(=O)c1cnccn1)c1ccc([N+](=O)[O-])cc1`, the solubility kinetic rises from 35 µg/mL (≈ 117 µM) to over 43.1 µg/mL.

`O=C(O)C1CCc2sc3[nH]c(=S)n(-c4ccccc4)c(=O)c3c21` (centres undefined) and `CCN(CC)CC.COc1ccc(-n2c(=S)[nH]c3c(sc(=S)n3-c3ccccc3)c2=O)c(OC)c1` cannot be ordered by solubility kinetic: over 51.7 µg/mL for the first, over 64.4 µg/mL for the second.

`CCSC1=NCCN1C(=O)Cc1ccc(-c2ccccc2)cc1` and `Cc1ccc(CN2CCN(CC(=O)NCc3ccccc3)CC2)cc1` are within 1.5-fold of each other in solubility kinetic: 3.3 µg/mL (≈ 10.2 µM) for the first, 2.2 µg/mL (≈ 6.52 µM) for the second.

First: Cc1ccc(C(=O)Nc2ccc3[nH]c(=O)[nH]c3c2)c(C)c1
Second: O=C(Nc1cccc(F)c1)c1c(O)c2cccc3c2n(c1=O)CCC3
The solubility kinetic of the first is higher: 3.9 µg/mL (≈ 13.9 µM) for the first, under 0.4 µg/mL for the second.

First: O=C1NC(=O)C2(CCCc3ccccc32)N1 (centres undefined)
Second: CC1(CO)COC2(OC1)C(=O)Nc1ccccc12 (centres undefined)
The solubility kinetic of the first is lower: 30.6 µg/mL (≈ 142 µM) for the first, over 37.4 µg/mL for the second.

`COc1ccc(Nc2c3c(nc4ccc(C)cc24)CCC3)cc1.Cl` and `COc1ccc(NC(=O)N2CCCc3ccccc32)c(OC)c1` are within 1.5-fold of each other in solubility kinetic: 36.6 µg/mL for the first, 45.3 µg/mL (≈ 145 µM) for the second.

Going from `Cc1ccc(S(=O)(=O)NCC[C@@]2(C)C3CCC2(C)C(=O)C3)cc1` (some centres undefined) to `Cc1ccc2[nH]c3c(c2c1)CCN1C(=O)OC(C)(C)C31C` (centres undefined), the solubility kinetic falls from over 50.3 µg/mL to 10.4 µg/mL (≈ 36.6 µM).

`Cc1cccc(-c2nc(CNC(=O)c3ccco3)cs2)c1` and `CN(CC(=O)Nc1ccccc1C(=O)NC1CC1)Cc1ccco1` cannot be ordered by solubility kinetic: over 44.8 µg/mL for the first, over 49.1 µg/mL for the second.

First: CCC(C)(NC=O)C(=O)Nc1c(C)cccc1C (centres undefined)
Second: CC(C)(C)c1ccc(SCCc2ccccn2)cc1
The solubility kinetic of the first is higher: over 37.2 µg/mL for the first, 1.1 µg/mL (≈ 4.05 µM) for the second.

First: CN(C)CCCNc1nc(N)c([N+](=O)[O-])c(NCc2ccccc2)n1
Second: S=C(NCCCc1ccccc1)NCc1ccccc1
The solubility kinetic of the first is 1.9-fold higher: 44.3 µg/mL (≈ 128 µM) for the first, 23.4 µg/mL (≈ 82.3 µM) for the second.

`Cc1nc(SCC(=O)N2CCOCC2)c2c(C)c(C)sc2n1` and `Cc1ccc(Cn2c(N3CCNCC3)nc3c2c(=O)[nH]c(=O)n3C)cc1` are within 1.5-fold of each other in solubility kinetic: 49.1 µg/mL (≈ 145 µM) for the first, 51.2 µg/mL (≈ 144 µM) for the second.

`CCCc1nnc(SCC(=O)NC2CCCCC2)n1CCOC` and `O=C(COC(=O)c1nsc(Cl)c1Cl)NC1CCCCC1` cannot be ordered by solubility kinetic: over 51.1 µg/mL for the first, over 50.6 µg/mL for the second.

`CC1CN(C(=O)COC(=O)Cc2c(Cl)cccc2Cl)CC(C)O1` (centres undefined) and `Cn1cc(-c2ccccc2C(=O)O)c(=O)c2cc(Cl)ccc21` cannot be ordered by solubility kinetic: over 54 µg/mL for the first, over 47.1 µg/mL for the second.

Going from `COc1ccc(NC(=O)c2ccc(S(=O)(=O)C(F)F)cc2)c(OC)c1` to `O=C(Nc1ccc(F)cc1)N1CCCN(c2ccc(C(F)(F)F)cn2)CC1`, the solubility kinetic falls from 13.1 µg/mL (≈ 35.3 µM) to 2.2 µg/mL (≈ 5.75 µM) (6-fold).

`Cc1cc(C(=O)N2CCN(c3ccc([N+](=O)[O-])cc3)CC2)n[nH]1` and `O=C(NC(=S)N1CCN(C/C=C/c2ccccc2)CC1)c1cccnc1` cannot be ordered by solubility kinetic: over 47.3 µg/mL for the first, over 55 µg/mL for the second.

Going from `CCCCc1ccc(NC2=NCCCS2)cc1` to `CCCCNC(=S)Nc1ccc(Oc2ccccc2)cc1`, the solubility kinetic falls from 26.4 µg/mL (≈ 106 µM) to 6.5 µg/mL (≈ 21.6 µM) (4.1-fold).

Compared with `Clc1ccc(-c2ccnc(-n3cccc3)n2)s1`, `Cc1cc(NC(=O)CSc2nnc(-c3ccco3)n2C)no1` is higher in solubility kinetic: under 0.2 µg/mL for the first, over 47.9 µg/mL for the second.

Work on `NC1CCN(c2c(F)cc3c(=O)c(C(=O)O)cn(C4CC4)c3c2Cl)C1` (centres undefined) yielded a solubility kinetic of over 54.9 µg/mL.
